Assay results as given in patent US9714249B2 (Novartis AG, priority 2013, dated 2017).

Legend:
BRD4 (His-Brd4(44-477)) = BRD4 (His-Brd4(44-477)) (Homo sapiens (Human), UniProt O60885); experiment: TR-FRET in-vitro binding assay for BRD4; conditions: acetyl-histone H4 peptide
Protocol: All assays were performed in 384 well microtiter plates. Each assay plate contained 8-point serial dilutions for 40 test compounds, plus 16 high- and 16 low controls. Liquid handling and incubation steps were done on an Innovadyne Nanodrop Express equipped with a robotic arm (Thermo CatX, Perkin Elmer/Caliper Twister II) and an incubator (Liconic STX40, Thermo Cytomat 2C450). The assay plates were prepared by addition of 50 nl per well of compound solution in 90% DMSO HummingBird nanodispenser (Zinsser Analytic). […] Reactions were incubated at 30° C. for 35 minutes. […] After 35 minutes incubation at 30° C., plates were measured in a Perkin Elmer EnVision multilabel reader.
(§1) Test compounds were dissolved in DMSO (10 mM) and transferred into 1.4 mL flat bottom or V-shaped Matrix tubes carrying a unique 2D matrix. The stock solutions were stored at […] if not used immediately. For the test procedure the vials were defrosted and identified by a scanner whereby a working sheet was generated that guided the subsequent working steps. Compound dilutions were made in 96 well plates. This format enabled the assay of maximally 40 individual test compounds at 8 concentrations (single points) including 4 reference compounds, if desired (known BET inhibitors from the prior art, for this and other assays of the type disclosed herein). The dilution protocol included the production of “pre-dilution plates”, “master plates” and “assay plates”.
(§2) Pre-dilution plates: 96 polypropylene well plates were used as pre-dilution plates. A total of 4 pre-dilution plates were prepared including 10 test compounds each on the plate positions A1-A10, one standard compound at A11 and one DMSO control at A12. All dilution steps were done on a HamiltonSTAR robot. […] These plates were used directly for the assay which was performed in a total volume of 13.55 μL. […] Cell Growth Inhibition Assay

[1] = target: CREBBP bromodomain (His-CREBBP (1081-1197)) (Homo sapiens (Human), UniProt Q92793); experiment: AlphaScreen in-vitro binding assay for CREBBP; conditions: acetyl-histone H4 peptide
Protocol: In order to assess bromodomain selectivity, we set up a binding assay using the bromodomain encoded by the CREBBP gene. […] Reactions were incubated at 30° C. for 35 minutes. Subsequently 4.5 μl per well detection mix (50 mM HEPES, pH 7.5, 0.005% Tween20, 0.02% BSA, 150 mM NaCl, 45 μg/ml Ni-chelate acceptor beads, 45 μg/ml streptavidin-donor beads) (Perkin Elmer)) were added. After 60 minutes incubation at room temperature, plates were measured in a Perkin Elmer EnVision multilabel reader. IC50 values were determined from percent inhibition values at different compound concentrations by non-linear regression analysis.
as §1, §2

MV-4-11 cells = experiment: Cell growth inhibition assay (CellTiter-Glo), MV-4-11; assay type: cell-based, human; conditions: MV-4-11, 4 days; for GI50: Homo sapiens, MV4-11, 96 h, half-maximal growth inhibition; for MV-4-11 TGI: total growth inhibition
Protocol: (§3) The human leukemia cell lines MV-4-11, THP-1 and K-562 were employed to characterize the effect of BET inhibitors on cellular proliferation and viability. Cells were obtained from the American Type Culture Collection (ATCC) and cultured at 37° C. in a humidified 5% CO2 incubator in the following media: MV-4-11: DMEM high glucose (Animed #1-26F01-I), 10% FCS (Animed #2-01F26-I), 4 mM L-Glutamine (Animed #5-10K50), 1 mM Sodium Pyruvate (Animed # G03625P), 1× Penicillin-Streptomycin (Animed # F12478P); K-562: Iscove's MEM (Animed #1-28F16-I), 10% FCS (Animed #2-01F26-I), 4 mM L-Glutamine (Animed #5-10K50), 1× Penicillin-Streptomycin (Animed # F12478P); THP-1: RPMI-1640 (Animed #1-41F01-I), 10% FCS (Animed #2-01F26-I), 2 mM L-Glutamine (Animed #5-10K50), 10 mM HEPES (Animed #5-31F100), 1 mM Sodium Pyruvate (Animed # G03625P), 1× Penicillin-Streptomycin (Animed # F12478P). The AML lines MV-4-11 and THP-1 are very sensitive to BET inhibitors and show massive cell death upon BET inhibition (Zuber et al., Nature, 478 (2011), 524-8). Compound-mediated suppression of cell proliferation/viability was assessed by quantification of cellular ATP levels using the CellTiter-Glo (CTG) reagent (Promega). Briefly, cells were seeded in 20 μl fresh medium into 384-well plates, followed by addition of 5 μl medium containing compound dilutions at 5-fold their final intended concentration. Dose-response effects were assessed by 3-fold serial dilutions of the test compound, starting at 10 μM. Following incubation of the cells for 4 days at 37° C. and 5% CO2, the effect of inhibitors on cell viability was quantified following addition of 20 μl CTG and luminescence quantification (integration time: 100 ms) as per vendor manual, using a correspondingly equipped Tecan M200 multi-mode platereader (TECAN, Switzerland). For data analysis, the assay background value determined in wells containing medium, but no cells, was subtracted from all data points. To enable differentiation of cytotoxic from cytostatic compounds, the number of viable cells is assessed relative to that observed at the time of compound addition using a separate cell plate (day 0). The effect of a particular test compound concentration on cell proliferation/viability is expressed as percentage of the background- and day 0-corrected luminescence reading obtained for cells treated with vehicle only (DMSO, 0.1% final concentration), which is set as 100%, whereas that luminescence reading for wells containing medium is set as −100%. Compound concentrations leading to half-maximal (1050) and total growth inhibition (TGI) were determined using standard four parameter curve fitting.

THP-1 cells = experiment: Cell growth inhibition assay (CellTiter-Glo), THP-1; assay type: cell-based, human; conditions: THP-1, 4 days; for GI50: Homo sapiens, 96 h, half-maximal growth inhibition; for THP-1 TGI: total growth inhibition
Protocol: as §3

CREBBP bromodomain (His-CREBBP (1081-1197)), sequence (Q92793 1081-1197): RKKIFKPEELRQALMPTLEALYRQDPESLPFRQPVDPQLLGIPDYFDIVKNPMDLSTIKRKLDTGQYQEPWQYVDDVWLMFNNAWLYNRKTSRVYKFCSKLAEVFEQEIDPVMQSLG

| IC50 (BRD4 (His-Brd4(44-477))) [nM] | IC50 [1] [nM] | GI50 (MV-4-11 cells) [nM] | GI50 (THP-1 cells) [nM] | Compound | MV-4-11 TGI (MV-4-11 cells) [nM] | THP-1 TGI (THP-1 cells) [nM] |
| --- | --- | --- | --- | --- | --- | --- |
| 71 | > 11100 | 115 | 166 | COc1ncc(-n2nc(C)c3c2C(c2ccc(Cl)cc2)N(c2cc(C)c(=O)n(C)c2)C3=O)cn1 (stereo not drawn) [Example 21a, 6-(4-chlorophenyl)-5-(1,5-dimethyl-6-oxo-1,6-dihydropyridin-3-yl)-1-(2-methoxypyrimidin-5-yl)-3-methyl-5,6-dihydropyrrolo[3,4-c]pyrazol-4(1H)-one] | 177 | 331 |
| 62 | 2000 | 49.6 | 104 | COc1ccc(-n2nc3c(c2C)C(=O)N(c2cc(C)c(=O)n(C)c2)C3c2ccc(Cl)cc2)cn1 (stereo not drawn) [Example 20a, 6-(4-chlorophenyl)-5-(1,5-dimethyl-6-oxo-1,6-dihydropyridin-3-yl)-2-(6-methoxypyridin-3-yl)-3-methyl-5,6-dihydropyrrolo[3,4-c]pyrazol-4(2H)-one] | 65 | 178 |
| 100 | 3800 | 50.5 | 91 | Cc1nn(-c2cccnc2F)c2c1C(=O)N(c1cc(C)c(=O)n(C)c1)C2c1ccc(Cl)cc1 (stereo not drawn) [Example 19, 6-(4-chlorophenyl)-5-(1,5-dimethyl-6-oxo-1,6-dihydropyridin-3-yl)-1-(2-fluoropyridin-3-yl)-3-methyl-5,6-dihydropyrrolo[3,4-c]pyrazol-4(1H)-one] | 79.8 | 164 |
| 103 | 2200 | 30 | 69.8 | COc1ccc(-n2nc(C)c3c2C(c2ccc(Cl)cc2)N(c2cc(C)c(=O)n(C)c2)C3=O)cc1 (stereo not drawn) [Example 13, 6-(4-chlorophenyl)-5-(1,5-dimethyl-6-oxo-1,6-dihydropyridin-3-yl)-1-(4-methoxyphenyl)-3-methyl-5,6-dihydropyrrolo[3,4-c]pyrazol-4(1H)-one] | 56.2 | 119 |
| 91 | 1000 | 22.6 | 27.6 | COc1ncccc1-n1nc2c(c1C)C(=O)N(c1cc(C)c(=O)n(C)c1)[C@@H]2c1ccc(Cl)cc1 [Example 26, (R)-6-(4-chlorophenyl)-5-(1,5-dimethyl-6-oxo-1,6-dihydropyridin-3-yl)-2-(2-methoxypyridin-3-yl)-3-methyl-5,6-dihydropyrrolo[3,4-c]pyrazol-4(2H)-one] | 36.75 | 52.4 |
| 120 | 4100 | 74.1 | 189 | Cc1[nH]nc2c1C(=O)N(c1cc(Cl)c(=O)n(C)c1)C2c1ccc(Cl)cc1 (stereo not drawn) [Example 6, 5-(5-chloro-1-methyl-6-oxo-1,6-dihydropyridin-3-yl)-6-(4-chlorophenyl)-3-methyl-5,6-dihydropyrrolo[3,4-c]pyrazol-4(2H)-one] | 134 | 352 |
| 62.5 | 1000 | 54.6 | 67.8 | COc1ncccc1-c1nn(C)c2c1C(=O)N(c1cc(C)c(=O)n(C)c1)C2c1ccc(Cl)cc1 (stereo not drawn) [Example 15, 6-(4-chlorophenyl)-5-(1,5-dimethyl-6-oxo-1,6-dihydropyridin-3-yl)-3-(2-methoxypyridin-3-yl)-1-methyl-5,6-dihydropyrrolo[3,4-c]pyrazol-4(1H)-one] | 92.4 | 143 |
| 56 | 545 | 23.6 | 43 | COc1ncccc1-c1nn(C)c2c1C(=O)N(c1cc(C)c(=O)n(C)c1)[C@@H]2c1ccc(Cl)cc1 [Example 16, (R)-6-(4-chlorophenyl)-5-(1,5-dimethyl-6-oxo-1,6-dihydropyridin-3-yl)-3-(2-methoxypyridin-3-yl)-1-methyl-5,6-dihydropyrrolo[3,4-c]pyrazol-4(1H)-one] | 43.7 | 92.2 |
| 210 | 5400 | 117 | 293 | COc1ncc(-n2nc3c(c2C)C(=O)N(c2cc(Cl)c(=O)n(C)c2)C3c2ccc(Cl)cc2)cn1 (stereo not drawn) [Example 8b, 5-(5-chloro-1-methyl-6-oxo-1,6-dihydropyridin-3-yl)-6-(4-chlorophenyl)-2-(2-methoxypyrimidin-5-yl)-3-methyl-5,6-dihydropyrrolo[3,4-c]pyrazol-4(2H)-one] | 195 | 562 |
| 89 | 3000 | 39.4 | 76.4 | Cc1nn(C)c2c1C(=O)N(c1cc(C)c(=O)n(C)c1)C2c1ccc(Cl)cc1 (stereo not drawn) [Example 10, 6-(4-chlorophenyl)-5-(1,5-dimethyl-6-oxo-1,6-dihydropyridin-3-yl)-1,3-dimethyl-5,6-dihydropyrrolo[3,4-c]pyrazol-4(1H)-one] | 65.5 | 132 |

| Compound | IC50 (BRD4 (His-Brd4(44-477))) [nM] | IC50 [1] [nM] | GI50 (MV-4-11 cells) [nM] | GI50 (THP-1 cells) [nM] | MV-4-11 TGI (MV-4-11 cells) [nM] | THP-1 TGI (THP-1 cells) [nM] |
| --- | --- | --- | --- | --- | --- | --- |
| COc1ncc(-n2nc(C)c3c2C(c2ccc(Cl)cc2)N(c2cc(Cl)c(=O)n(C)c2)C3=O)cn1 (stereo not drawn) [Example 8a, 5-(5-chloro-1-methyl-6-oxo-1,6-dihydropyridin-3-yl)-6-(4-chlorophenyl)-1-(2-methoxypyrimidin-5-yl)-3-methyl-5,6-dihydropyrrolo[3,4-c]pyrazol-4(1H)-one] | 170 | > 37000 | 141 | 127 | 294 | 493 |
| COc1ncccc1-n1nc(C)c2c1[C@@H](c1ccc(Cl)cc1)N(c1cc(C)c(=O)n(C)c1)C2=O [Example 25, (R)-6-(4-chlorophenyl)-5-(1,5-dimethyl-6-oxo-1,6-dihydropyridin-3-yl)-1-(2-methoxypyridin-3-yl)-3-methyl-5,6-dihydropyrrolo[3,4-c]pyrazol-4(1H)-one] | 150 | 2000 | 40.7 | 72.7 | 72.55 | 135.5 |
